# Several values for one entry are separate records, joined by “and”; a condition that tells them apart may be missing. Identical values can stand only once.
# Tests used:
# B4G12 cells = experiment: Oxidative stress test (cellular ROS detection assay kit); type: cell-based; conditions: after 5 days of culturing, FIG. 3
# Description: (§1) The oxidative stress of ARPE19 and B4G12 cells were tested using cellular ROS detection assay kit (Deep Red Fluorescence, ab186029) after 5 days of culturing. The tested groups were the same as the abovementioned control group 1, control group 2, comparative group, and treatment group. The test results were shown in FIG. 3, wherein the red fluorescent light represented the existence of oxidative stress.
# ARPE19 cells = experiment: as above; type: cell-based; conditions: after 5 days of culturing, FIG. 3
# Description: as §1
# [1] = tested on: corneal endothelial cells; experiment: Phacoemulsification in patients with low corneal endothelial cell density; type: in vivo; conditions: 28 days four times a day before phacoemulsification, one patient eye
# Excerpt: Please refer to the following Table. 1 showing the age and sex of the patients, concentration of ascorbic acid in the ophthalmic composition, cause of low corneal endothelial cell density (ECD), total energy of phacoemulsification, duration time of phacoemulsification, corneal endothelial cell density before and after the phacoemulsification, and the percentage of cell loss. […] The ratio of cell loss after may be down regulated to 6.2±1.9%.
# [2] = tested on: corneal endothelial cell line (B4G12); experiment: Cell experiment: paraquat-induced apoptosis, cell morphology; type: cell-based; conditions: for cell morphology (apoptosis, vesicle formation) / cell morphology (protective effect): FIG. 1
# Description: (§2) In the present embodiment, retinal pigment epithelial cell line (ARPE19) and corneal endothelial cell line (B4G12) were subjected to the cell experiment. The B4G12 cells were cultured with the cell culture medium comprising Human Endothelial-SFM, 2% of fetal bovine serum (FBS), and 10 ng/ml of basic fibroblast growth factor (bFGF). The culture medium was changed every two days. The ARPE 19 cells were cultured with the cell culture medium comprising Dulbecco's Modified Eagle Medium Nutrient Mixture F-12 (DMEM-F12), 10% of FBS, 0.5% of ampicillin, and 0.125% of gentamycin. The culture medium was changed every two days.
# (§3) 2 mM of paraquat was added to the culture medium of the ARPE19 cells, and 0.2 mM of paraquat was added to the culture medium of the B4G12 cells to induce apoptosis of the cells. 0.1, 0.5, 1.0, and 2.0 mM of ascorbic acid were then added respectively to the culture medium of the cells for 5 days and the cell morphologies thereof were shown in FIG. 1. […] Accordingly, the lowest effective concentration of ascorbic acid is 1.0 mM.
# (§4) Further, ARPE19 cells and B4G12 cells were divided respectively into four groups, which comprises a control group 1 without added ascorbic acid or paraquat; a control group 2 added with ascorbic acid but without paraquat; a comparative group added with paraquat but without ascorbic acid; and a treatment group added with ascorbic acid and paraquat, wherein 1 mM of ascorbic acid were added to the control groups 2 and treatment groups, 2 mM of paraquat were added to the comparative group and the treatment group of ARPE19 cells, and 0.2 mM of paraquat were added to the comparative group and the treatment group of B4G12 cells.
# [3] = tested on: retinal pigment epithelial cell line (ARPE19); experiment: as above; type: cell-based; conditions: for cell morphology (apoptosis, vesicle formation) / cell morphology (protective effect): FIG. 1
# Description: as §2, §3, §4
# [4] = 1 mM ascorbic acid without paraquat
# [5] = control group 2: 1 mM ascorbic acid without paraquat, FIG. 2
smiles,measurement,setting,value
O=C1O[C@H]([C@@H](O)CO)C(O)=C1O [ascorbic acid],"oxidative stress (red fluorescence, ROS)",B4G12 cells; 1 mM ascorbic acid + 0.2 mM paraquat,sufficiently decrease the oxidative stress caused by paraquat
same,"oxidative stress (red fluorescence, ROS)",B4G12 cells; [4],did not increase significantly
same,"oxidative stress (red fluorescence, ROS)",ARPE19 cells; 1 mM ascorbic acid + 2 mM paraquat,sufficiently decrease the oxidative stress caused by paraquat
same,"oxidative stress (red fluorescence, ROS)",ARPE19 cells; [4],did not increase significantly
same,Cell lost,[1]; 20 mg/cc ascorbic acid,5.6% and 9.3%
same,Post-op corneal ECD,[1]; 20 mg/cc ascorbic acid,981 cells/mm^2 and 1239 cells/mm^2
same,Cell lost,[1]; 50 mg/cc ascorbic acid,3.6% and 5.3% and 8.6% and 8.0% and 7.6% and 6.2% and 5.5% (2×) and 6.9% and 5.1%
same,Post-op corneal ECD,[1]; 50 mg/cc ascorbic acid,1355 cells/mm^2 and 983 cells/mm^2 and 1238 cells/mm^2 and 1119 cells/mm^2 and 1249 cells/mm^2 and 1181 cells/mm^2 and 1724 cells/mm^2 and 1112 cells/mm^2 and 1649 cells/mm^2 and 838 cells/mm^2
same,"cell morphology (apoptosis, vesicle formation)","[2]; 0.1 mM ascorbic acid, 0.2 mM paraquat, 5 days",showed cell apoptosis and vesicle formation
same,lowest effective concentration,"[2]; 0.2 mM paraquat, 5 days",1.0 mM
same,"cell morphology (apoptosis, vesicle formation)","[2]; 0.5 mM ascorbic acid, 0.2 mM paraquat, 5 days",showed cell apoptosis and vesicle formation
same,cell morphology (protective effect),"[2]; 1.0 mM ascorbic acid, 0.2 mM paraquat, 5 days",showed the protective effect for the cells
same,cell morphology (protective effect),"[2]; 2.0 mM ascorbic acid, 0.2 mM paraquat, 5 days",showed the protective effect for the cells
same,cell vesicles,"[2]; control group 2: 1 mM ascorbic acid without paraquat (same in control group 1), FIG. 2",only some cell vesicles were generated
same,cell apoptosis,[2]; [5],did not show significant cell apoptosis
same,cell apoptosis and cell vesicle generation,"[2]; treatment group: 1 mM ascorbic acid + 0.2 mM paraquat, FIG. 2",cell apoptosis and cell vesicle generation were not significant
same,"cell morphology (apoptosis, vesicle formation)","[3]; 0.1 mM ascorbic acid, 2 mM paraquat, 5 days",showed cell apoptosis and vesicle formation
same,"cell morphology (apoptosis, vesicle formation)","[3]; 0.5 mM ascorbic acid, 2 mM paraquat, 5 days",showed cell apoptosis and vesicle formation
same,cell morphology (protective effect),"[3]; 1.0 mM ascorbic acid, 2 mM paraquat, 5 days",showed the protective effect for the cells
same,cell morphology (protective effect),"[3]; 2.0 mM ascorbic acid, 2 mM paraquat, 5 days",showed the protective effect for the cells
same,lowest effective concentration,"[3]; 2 mM paraquat, 5 days",1.0 mM
same,cell apoptosis,[3]; [5],did not show significant cell apoptosis
same,cell apoptosis and cell vesicle generation,"[3]; treatment group: 1 mM ascorbic acid + 2 mM paraquat, FIG. 2",cell apoptosis and cell vesicle generation were not significant
